Measurements: publication PMC3914206

Biological target: T1, panel of 442 kinases (Homo sapiens, UniProt Q56UN5)
T1 construct: purchased KINOMEscan
T1 sequence (Q56UN5 1-1328): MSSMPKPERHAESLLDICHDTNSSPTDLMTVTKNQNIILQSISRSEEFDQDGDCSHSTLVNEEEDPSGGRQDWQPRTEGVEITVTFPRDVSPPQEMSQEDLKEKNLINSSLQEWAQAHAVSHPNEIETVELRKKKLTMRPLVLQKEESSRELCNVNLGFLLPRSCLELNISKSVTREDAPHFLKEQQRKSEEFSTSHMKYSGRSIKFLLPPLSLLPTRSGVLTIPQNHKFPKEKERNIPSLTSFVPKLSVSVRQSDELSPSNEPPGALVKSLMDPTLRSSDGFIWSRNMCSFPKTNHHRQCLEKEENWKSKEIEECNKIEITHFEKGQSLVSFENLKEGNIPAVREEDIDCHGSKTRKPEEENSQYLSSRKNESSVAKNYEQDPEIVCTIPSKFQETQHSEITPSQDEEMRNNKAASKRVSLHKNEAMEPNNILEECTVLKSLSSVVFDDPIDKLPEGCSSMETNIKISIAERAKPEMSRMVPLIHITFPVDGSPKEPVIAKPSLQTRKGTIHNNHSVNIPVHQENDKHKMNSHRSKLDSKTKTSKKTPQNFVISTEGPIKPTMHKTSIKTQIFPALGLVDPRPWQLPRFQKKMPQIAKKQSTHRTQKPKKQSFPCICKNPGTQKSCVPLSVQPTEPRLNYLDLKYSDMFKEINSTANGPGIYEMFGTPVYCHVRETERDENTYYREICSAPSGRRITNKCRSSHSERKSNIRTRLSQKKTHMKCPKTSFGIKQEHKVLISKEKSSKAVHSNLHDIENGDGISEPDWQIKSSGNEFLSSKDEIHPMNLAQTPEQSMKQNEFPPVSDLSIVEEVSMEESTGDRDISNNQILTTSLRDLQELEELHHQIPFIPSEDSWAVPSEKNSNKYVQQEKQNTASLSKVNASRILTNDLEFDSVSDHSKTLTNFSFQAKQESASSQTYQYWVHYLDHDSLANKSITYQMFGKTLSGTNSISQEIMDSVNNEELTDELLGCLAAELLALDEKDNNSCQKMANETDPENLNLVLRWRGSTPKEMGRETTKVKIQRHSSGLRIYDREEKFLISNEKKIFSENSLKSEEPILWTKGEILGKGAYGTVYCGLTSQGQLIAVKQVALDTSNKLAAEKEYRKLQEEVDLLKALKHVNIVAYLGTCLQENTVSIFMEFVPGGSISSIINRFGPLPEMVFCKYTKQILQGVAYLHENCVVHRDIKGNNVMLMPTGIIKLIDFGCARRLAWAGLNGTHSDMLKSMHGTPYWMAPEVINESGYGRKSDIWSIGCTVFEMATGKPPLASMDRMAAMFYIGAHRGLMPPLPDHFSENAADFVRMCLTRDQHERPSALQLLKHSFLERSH
Type: binding
Details: kinase YSK4; compound concentration 10 µM
Description: We assessed the selectivity of members of this scaffold using the KINOMEscan methodology across a near comprehensive panel of 442 kinases [[18,27]].

CCOc1cc(C(=O)N2CCC(N3CCN(C)CC3)CC2)ccc1Nc1ncc2c(n1)N(C1CCCC1)c1ccccc1C(=O)N2C [Compound 26]
% Ctrl, YSK4: 100 % Ctrl

COc1cc(C(=O)N2CCC(N3CCN(C)CC3)CC2)ccc1Nc1ncc2c(n1)N(C1CCCC1)c1ccccc1C(=O)N2C [Compound 25, 11-cyclopentyl-2-((2-methoxy-4-(4-(4-methylpiperazin-1-yl)piperidine-1-carbonyl)phenyl)amino)-5-methyl-5H-benzo[e]pyrimido[5,4-b][1,4]diazepin-6(11H)-one]
% Ctrl, YSK4: 100 % Ctrl

COc1cc(C(=O)N2CCC(N3CCN(C)CC3)CC2)ccc1Nc1ncc2c(n1)N1CCc3cccc(c31)C(=O)N2C [Compound 24]
% Ctrl, YSK4: 24 % Ctrl

COc1cc(C(=O)N2CCC(N3CCN(C)CC3)CC2)ccc1Nc1ncc2c(n1)N(C)c1ccccc1C(=O)N2C [15 (LRRK2-IN-1)]
% Ctrl, YSK4: 99 % Ctrl
